From DBAASP come the findings set out here.

Among the test systems are Escherichia coli DC2; Candida albicans; Escherichia coli KF130; Escherichia coli UB1005; Aspergillus niger; Candida albicans MDM8; Candida krusei IOC 4559.
What all share (assay): ≥ marks a high value that may be exact or a test limit, other limits are often not marked, values filed in µg/mL are converted to µM
In experiment [1] the test system is Salmonella enterica subsp. enterica serovar Typhimurium ATCC 14028s.
Experiment [2] concerns Staphylococcus epidermidis.
The subject of experiment [3] is Pseudomonas aeruginosa H744.
In experiment [4] the test system is Enterococcus faecalis ATCC 29212.
Experiment [5] deals with Staphylococcus aureus ATCC 25923.
The subject of experiment [6] is Pseudomonas aeruginosa PAO1.
Experiment [7] has as its system Pseudomonas aeruginosa H374.
Experiment [8] deals with Staphylococcus aureus SAP 0017.
The subject of experiment [9] is Staphylococcus aureus R147.
Experiment [10] relates to Candida albicans IOC 4558.
Experiment [11] relates to Candida parapsilosis IOC 456416.
Experiment [12] deals with Candida glabrata IOC 4565.
Experiment [13] deals with Candida tropicalis IOC 45608.

Converted amounts (≈) assume the structure as drawn.

A word on the MIC: it is the smallest concentration in the dilution series that meets the test's criterion for growth inhibition. The low end stands for a more susceptible organism, the high end for a less susceptible organism. With `CC(C)[C@@H]1NC(=O)[C@H](CCCN=C(N)N)NC(=O)[C@H](Cc2ccccc2)NC(=O)[C@@H](NC(=O)[C@H](Cc2c[nH]c3ccccc23)NC(=O)[C@H](CCCN=C(N)N)NC(=O)[C@@H](N)CCCN=C(N)N)CSSC[C@@H](C(=O)N[C@@H](CCCN=C(N)N)C(N)=O)NC(=O)[C@H](CCCCN)NC(=O)[C@H](CCCN=C(N)N)NC(=O)[C@H](Cc2ccc(O)cc2)NC(=O)[C@@H]2CSSC[C@H](NC1=O)C(=O)N[C@@H](Cc1ccc(O)cc1)C(=O)N[C@@H](CCCN=C(N)N)C(=O)NCC(=O)N[C@@H](CCCN=C(N)N)C(=O)N[C@@H](Cc1ccccc1)C(=O)N2` [RRWCFRVCYRGRFCYRKCR], the minimum inhibitory concentration (MIC) with Escherichia coli DC2 amounted to 0.0956 µM (≈ 0.25 µg/mL); in experiment [1] it was 0.191 µM (≈ 0.499 µg/mL); in experiment [2] it was 0.0956 µM (≈ 0.25 µg/mL); in [3], 0.382 µM (≈ 0.998 µg/mL); in experiment [4], 0.191 µM (≈ 0.499 µg/mL); in experiment [5], 0.382 µM (≈ 0.998 µg/mL). Also, the minimum inhibitory concentration (MIC) in the experiment on Candida albicans amounted to 0.765 µM (≈ 2 µg/mL); against Escherichia coli KF130, 0.0956 µM (≈ 0.25 µg/mL); in [6], 0.382 µM (≈ 0.998 µg/mL); with Escherichia coli UB1005 it was 0.0956 µM (≈ 0.25 µg/mL); in [7], 0.191 µM (≈ 0.499 µg/mL); in experiment [8], 0.382 µM (≈ 0.998 µg/mL). Besides, the MIC in [9] was 0.382 µM (≈ 0.998 µg/mL).

`CC[C@H](C)[C@@H]1NC(=O)[C@H](C)NC(=O)[C@@H](NC(=O)[C@@H](NC(=O)[C@@H](N)Cc2ccccc2)[C@@H](C)O)CSSC[C@@H]2NC(=O)[C@H](CCCCN)NC(=O)[C@H](CCCCN)NC(=O)[C@H](CCC(=O)O)NC(=O)CNC(=O)[C@H](CO)NC(=O)CNC(=O)[C@H](CCCCN)NC(=O)[C@@H]3CSSC[C@@H](C(=O)N[C@H](C(=O)N[C@@H](CCCCN)C(=O)N[C@H](C(=O)O)C(C)C)C(C)C)NC(=O)[C@H](C(C)C)NC(=O)[C@H](CC(N)=O)NC(=O)[C@H](Cc4ccccc4)NC(=O)[C@H](CCCCN)NC(=O)[C@H](CSSC[C@H](NC(=O)[C@H](CO)NC1=O)C(=O)N[C@@H](CC(=O)O)C(=O)N[C@@H]([C@@H](C)CC)C(=O)N[C@@H](CCCCN)C(=O)N[C@@H](C(C)C)C(=O)N[C@@H](CC(N)=O)C(=O)NCC(=O)N[C@@H](CCCCN)C(=O)N1CCC[C@H]1C(=O)N3)NC(=O)[C@H](CO)NC(=O)[C@H](Cc1c[nH]c3ccccc13)NC(=O)CNC(=O)CNC(=O)[C@H](CO)NC2=O` [FTCAISCDIKVNGKPCKGSGEKKCSGGWSCKFNVCVKV]: the minimum inhibitory concentration (MIC) in the experiment with Aspergillus niger was determined as 7.07 µM (≈ 28.3 µg/mL); in experiment [10], 3.54 µM (≈ 14.2 µg/mL); in experiment [11] it was 3.54 µM (≈ 14.2 µg/mL); in experiment [12] it was 3.54 µM (≈ 14.2 µg/mL); against Candida albicans MDM8, 3.54 µM (≈ 14.2 µg/mL); against Candida krusei IOC 4559, 3.54 µM (≈ 14.2 µg/mL). Besides, the MIC in [13] turned out to be 3.54 µM (≈ 14.2 µg/mL).
